Species on record: Rattus norvegicus
Test: DrugMatrix - Regimen: Daily Repeat
Type: toxicity, organism-based, Sprague-Dawley
Set-up: regimen Daily Repeat, gender Male, age 6-8 weeks
Details: in vivo, po, route oral GAVAGE, vehicle .5 % CMC; for ABSOLUTE LYMPHOCYTE / ABSOLUTE MONOCYTE / ABSOLUTE SEGMENTED NEUTROPHIL / BASOPHIL / EOSINOPHIL / ERYTHROCYTE COUNT / HEMATOCRIT / HEMOGLOBIN / LEUKOCYTE COUNT / LYMPHOCYTE / MEAN CORPUSCULAR HEMOGLOBIN / MEAN CORPUSCULAR HEMOGLOBIN CONCENTRATION / MEAN CORPUSCULAR VOLUME / MONOCYTE / NEUTROPHIL / NUCLEATED RED BLOOD CELLS / PLATELET COUNT / ABSOLUTE BASOPHIL / ABSOLUTE EOSINOPHIL: tissue Blood; for ALANINE AMINOTRANSFERASE / ALBUMIN / ALKALINE PHOSPHATASE / ASPARTATE AMINOTRANSFERASE / BLOOD UREA NITROGEN / CARBON DIOXIDE / CHLORIDE / CHOLESTEROL / CREATINE PHOSPHOKINASE / CREATININE / GLUCOSE / LACTATE DEHYDROGENASE / LIPASE / PHOSPHORUS / POTASSIUM / SODIUM / TOTAL BILIRUBIN / TOTAL PROTEIN / URIC ACID: tissue Plasma
[1] = 11 mg/kg, 120 h, dose level Low, time 5 day
[2] = 110 mg/kg, 72 h, dose level M1, time 3 day
[3] = 110 mg/kg, 120 h, dose level M1, time 5 day

COc1ccc2c3c1O[C@H]1C[C@@H](O)C=C[C@@]31CCN(C)C2 [GALANTAMINE]
ABSOLUTE LYMPHOCYTE [1]: 13451.33 CELLS/uL | ABSOLUTE MONOCYTE [1]: 58.33 CELLS/uL | ABSOLUTE SEGMENTED NEUTROPHIL [1]: 1323.67 CELLS/uL | BASOPHIL [1]: 0% | EOSINOPHIL [1]: 0% | ERYTHROCYTE COUNT [1]: 5.81 x10E6/uL | HEMATOCRIT [1]: 35.73% | HEMOGLOBIN [1]: 14.27 G/DL | LEUKOCYTE COUNT [1]: 14.83 x10E3/uL | LYMPHOCYTE [1]: 90.33% | MEAN CORPUSCULAR HEMOGLOBIN [1]: 24.57 pg | MEAN CORPUSCULAR HEMOGLOBIN CONCENTRATION [1]: 39.93 G/DL | MEAN CORPUSCULAR VOLUME [1]: 61.57 fL | MONOCYTE [1]: 0.33% | NEUTROPHIL [1]: 9.33% | NUCLEATED RED BLOOD CELLS [1]: 0 /100WBC | PLATELET COUNT [1]: 1163.33 x10E3/uL | ALANINE AMINOTRANSFERASE [1]: 48.67 u/L | ALBUMIN [1]: 4.27 G/DL | ALKALINE PHOSPHATASE [1]: 399 u/L | ASPARTATE AMINOTRANSFERASE [1]: 74.67 u/L | BLOOD UREA NITROGEN [1]: 20.33 mg/dL | CARBON DIOXIDE [1]: 28.33 mmol/L | CHLORIDE [1]: 99.67 MEQ/L | CHOLESTEROL [1]: 76.67 mg/dL | CREATINE PHOSPHOKINASE [1]: 330.67 u/L | CREATININE [1]: 0.19 mg/dL | GLUCOSE [1]: 158.67 mg/dL | LACTATE DEHYDROGENASE [1]: 135 u/L | LIPASE [1]: 10 u/L | PHOSPHORUS [1]: 12.37 mg/dL | POTASSIUM [1]: 6.09 MEQ/L | SODIUM [1]: 144.2 MEQ/L | TOTAL BILIRUBIN [1]: 0.23 mg/dL | TOTAL PROTEIN [1]: 6.17 G/DL | URIC ACID [1]: 1.33 mg/dL | ABSOLUTE BASOPHIL [2]: 0 CELLS/uL | ABSOLUTE EOSINOPHIL [2]: 37.33 CELLS/uL | ABSOLUTE LYMPHOCYTE [2]: 14169 CELLS/uL | ABSOLUTE MONOCYTE [2]: 124.67 CELLS/uL | ABSOLUTE SEGMENTED NEUTROPHIL [2]: 769 CELLS/uL | BASOPHIL [2]: 0% | EOSINOPHIL [2]: 0.33% | ERYTHROCYTE COUNT [2]: 5.81 x10E6/uL | HEMATOCRIT [2]: 36.57% | HEMOGLOBIN [2]: 14.27 G/DL | LEUKOCYTE COUNT [2]: 15.1 x10E3/uL | LYMPHOCYTE [2]: 94% | MEAN CORPUSCULAR HEMOGLOBIN [2]: 24.57 pg | MEAN CORPUSCULAR HEMOGLOBIN CONCENTRATION [2]: 39 G/DL | MEAN CORPUSCULAR VOLUME [2]: 62.97 fL | MONOCYTE [2]: 0.67% | NEUTROPHIL [2]: 5% | NUCLEATED RED BLOOD CELLS [2]: 0 /100WBC | PLATELET COUNT [2]: 1366 x10E3/uL | ALANINE AMINOTRANSFERASE [2]: 64.33 u/L | ALBUMIN [2]: 4.03 G/DL | ALKALINE PHOSPHATASE [2]: 411.33 u/L | ASPARTATE AMINOTRANSFERASE [2]: 91 u/L | BLOOD UREA NITROGEN [2]: 16 mg/dL | CARBON DIOXIDE [2]: 33 mmol/L | CHLORIDE [2]: 102.67 MEQ/L | CHOLESTEROL [2]: 70.67 mg/dL | CREATINE PHOSPHOKINASE [2]: 247.67 u/L | CREATININE [2]: 0.2 mg/dL | GLUCOSE [2]: 131.33 mg/dL | LACTATE DEHYDROGENASE [2]: 252 u/L | LIPASE [2]: 8.33 u/L | PHOSPHORUS [2]: 11.67 mg/dL | POTASSIUM [2]: 7.08 MEQ/L | SODIUM [2]: 144.3 MEQ/L | TOTAL BILIRUBIN [2]: 0.23 mg/dL | TOTAL PROTEIN [2]: 5.5 G/DL | URIC ACID [2]: 1.43 mg/dL | ABSOLUTE BASOPHIL [3]: 0 CELLS/uL | ABSOLUTE EOSINOPHIL [3]: 67.67 CELLS/uL | ABSOLUTE LYMPHOCYTE [3]: 15229.33 CELLS/uL | ABSOLUTE MONOCYTE [3]: 0 CELLS/uL | ABSOLUTE SEGMENTED NEUTROPHIL [3]: 1603 CELLS/uL | BASOPHIL [3]: 0% | EOSINOPHIL [3]: 0.33% | ERYTHROCYTE COUNT [3]: 5.71 x10E6/uL | HEMATOCRIT [3]: 35.4% | HEMOGLOBIN [3]: 14.07 G/DL | LEUKOCYTE COUNT [3]: 16.9 x10E3/uL | LYMPHOCYTE [3]: 90% | MEAN CORPUSCULAR HEMOGLOBIN [3]: 24.67 pg | MEAN CORPUSCULAR HEMOGLOBIN CONCENTRATION [3]: 39.77 G/DL | MEAN CORPUSCULAR VOLUME [3]: 62.03 fL | MONOCYTE [3]: 0% | NEUTROPHIL [3]: 9.67% | NUCLEATED RED BLOOD CELLS [3]: 0 /100WBC | PLATELET COUNT [3]: 1316.67 x10E3/uL | ALANINE AMINOTRANSFERASE [3]: 48 u/L | ALBUMIN [3]: 4.1 G/DL | ALKALINE PHOSPHATASE [3]: 401.67 u/L | ASPARTATE AMINOTRANSFERASE [3]: 99 u/L | BLOOD UREA NITROGEN [3]: 14.33 mg/dL | CARBON DIOXIDE [3]: 24.67 mmol/L | CHLORIDE [3]: 101.67 MEQ/L | CHOLESTEROL [3]: 60.33 mg/dL | CREATINE PHOSPHOKINASE [3]: 541 u/L | CREATININE [3]: 0.27 mg/dL | GLUCOSE [3]: 132.67 mg/dL | LACTATE DEHYDROGENASE [3]: 653 u/L | LIPASE [3]: 11 u/L | PHOSPHORUS [3]: 13 mg/dL | POTASSIUM [3]: 6.92 MEQ/L | SODIUM [3]: 143.03 MEQ/L | TOTAL BILIRUBIN [3]: 0.23 mg/dL | TOTAL PROTEIN [3]: 5.77 G/DL | URIC ACID [3]: 1.8 mg/dL

Source: ChEMBL document CHEMBL3885881, “DrugMatrix”
